Test results from PubChem BioAssay (NCI).
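These data come from cells grown in 96-well plates and exposed to compound for 48 hours at five concentrations. Definition used: TGI = concentration required for complete inhibition of growth.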

Assays:
Assay in all cases: NCI-60 cell line screen, 48 h
ACHN renal = tested on: ACHN renal
SK-MEL-28 melanoma = tested on: SK-MEL-28 melanoma
OVCAR-5 ovarian = tested on: OVCAR-5 ovarian
KM12 colon = tested on: KM12 colon
PC-3 prostate = tested on: PC-3 prostate
SK-MEL-5 melanoma = tested on: SK-MEL-5 melanoma
SW-620 colon = tested on: SW-620 colon
HS 578T breast = tested on: HS 578T breast
RXF 393 renal = tested on: RXF 393 renal
SNB-19 CNS = tested on: SNB-19 CNS
A498 renal = tested on: A498 renal
HCT-116 colon = tested on: HCT-116 colon
A549 NSCLC = tested on: A549 NSCLC
LOX IMVI melanoma = tested on: LOX IMVI melanoma
UO-31 renal = tested on: UO-31 renal
786-0 renal = tested on: 786-0 renal
NCI/ADR-RES ovarian = tested on: NCI/ADR-RES ovarian
OVCAR-8 ovarian = tested on: OVCAR-8 ovarian
SF-268 CNS = tested on: SF-268 CNS
HT29 colon = tested on: HT29 colon

Row | SMILES | TGI (ACHN renal) | TGI (SK-MEL-28 melanoma) | TGI (OVCAR-5 ovarian) | TGI (KM12 colon) | TGI (PC-3 prostate) | TGI (SK-MEL-5 melanoma) | TGI (SW-620 colon) | TGI (HS 578T breast) | TGI (RXF 393 renal) | TGI (SNB-19 CNS) | TGI (A498 renal) | TGI (HCT-116 colon) | TGI (A549 NSCLC) | TGI (LOX IMVI melanoma) | TGI (UO-31 renal) | TGI (786-0 renal) | TGI (NCI/ADR-RES ovarian) | TGI (OVCAR-8 ovarian) | TGI (SF-268 CNS) | TGI (HT29 colon)
1 | O=C(NC(Nc1ccc(F)cc1)(C(F)(F)F)C(F)(F)F)C(C(F)(F)F)C(F)(F)F | > 100 µM | > 100 µM | > 100 µM | > 100 µM | > 100 µM | > 100 µM | > 100 µM | > 90.5 µM | > 100 µM | > 100 µM | > 100 µM | > 100 µM | > 100 µM | > 100 µM | > 62.5 µM | > 100 µM | > 100 µM | > 100 µM | > 100 µM | > 100 µM
2 | CCOC(=O)/C=C/[C@H](O)[C@@H](O)/C=C/C(=O)OCC | 60 µM | 44.3 µM | > 100 µM | 47.6 µM | > 100 µM | > 100 µM | 40.6 µM | > 100 µM | 79.4 µM | 58.2 µM | > 100 µM | 43 µM | > 100 µM | 74.2 µM | > 100 µM | > 100 µM | > 100 µM | 44.8 µM | > 100 µM | 36.9 µM
3 | CC1Cc2cc(O)c(O)cc2-c2cc(O)c(O)cc2CC1C (stereo not given) | 87.1 µM | 43.6 µM | 45.6 µM | 14 µM | 61.5 µM | 17.4 µM | 42.5 µM | 61.7 µM | 56.4 µM | 96.2 µM | 56.8 µM | 34.5 µM | 71.1 µM | 23.1 µM | 85.3 µM | 39.9 µM | 38.4 µM | 53.3 µM | > 100 µM | 63.9 µM
4 | O=C(Cc1nc2ncccc2[nH]c1=O)c1c[nH]c2ccccc12 | 30.1 µM | 32.8 µM | 59.2 µM | 34.5 µM | 29.9 µM | 73 µM | 40.5 µM | 40.8 µM | 39.1 µM | 35.7 µM | 31.7 µM | 49 µM | 47.8 µM | 44 µM | 32.5 µM | 40.5 µM | > 100 µM | 81.1 µM | 30.5 µM | 60.9 µM
5 | CC(C)C(C/C=C1/CC(CO)(COC(=O)c2ccccc2)OC1=O)C(C)C (stereo not given) | 28.2 µM | 27.8 µM | 31.2 µM | 31.7 µM | 28.1 µM | 21.3 µM | 31.9 µM | 24.3 µM | 31.2 µM | 31.1 µM | 39.7 µM | 29.7 µM | 26.5 µM | 69.6 µM | 31.5 µM | 23.2 µM | 38.8 µM | 48.5 µM | 31.8 µM | 36.4 µM
6 | O=C1c2ccccc2CC12Cc1ccccc1C2 | > 100 µM | > 100 µM | > 100 µM | > 100 µM | > 100 µM | 56.1 µM | > 100 µM | > 100 µM | 70.1 µM | > 100 µM | > 100 µM | > 100 µM | > 100 µM | > 100 µM | > 100 µM | > 100 µM | 89.1 µM | > 100 µM | > 100 µM | 70.5 µM
7 | O=C(NCCN1CCCCC1)c1ccc(I)cc1 | > 100 µM | > 100 µM | > 100 µM | > 100 µM | > 100 µM | > 100 µM | > 100 µM | > 100 µM | > 100 µM | > 100 µM | 69.3 µM | > 100 µM | > 100 µM | > 100 µM | > 100 µM | > 100 µM | > 100 µM | > 100 µM | > 100 µM | > 100 µM
8 | Oc1ccccc1C1=NOC(c2ccc(C(F)(F)F)cc2)C1 (stereo not given) | > 50 µM | > 50 µM | > 50 µM | > 50 µM | > 50 µM | > 50 µM | > 50 µM | > 50 µM | > 50 µM | > 50 µM | > 50 µM | > 50 µM | > 50 µM | > 50 µM | > 50 µM | > 50 µM | > 50 µM | > 50 µM | > 50 µM | > 50 µM
9 | N#Cc1c(Cl)nc2ccccc2c1N=[N+]=[N-] | 4.11 µM | 9.11 µM | 15.2 µM | 17.8 µM | 8.44 µM | 27.7 µM | 3.54 µM | 17.3 µM | 2.93 µM | 29.7 µM | 36.2 µM | 3.06 µM | 35.3 µM | 3.47 µM | 9.4 µM | 7.17 µM | 37.3 µM | 7.7 µM | 11.2 µM | 3.26 µM
